Converted amounts (≈) assume the structure as drawn.

Data set [1] relates to MCF-7. Nature of the data set: Cell proliferation assay (CCK-8), MCF-7. The class given is cell-based, human.
Procedure: Cells were seeded at a density of five thousand cells per well in 96-well plates and left to incubate overnight. Triplicate samples of free SN38, free SN38-G, and SN38-G liposomes were added at various dilutions and incubated for 24 h. CCK-8 stock solution was thawed at 37 °C in a water bath, 10 μL was added to each well, and plates were placed in the incubator for up to 4 h before measuring the absorbance at 450 nm using a microplate reader. Inhibition of cell proliferation was determined as 2 ″%ofinhibitioncomparedtocontrol^″=absorbanceat450nm(sample)×100/Absorbanceat450nm(control)
Sequential Esterification, Hydrolysis, Enzymatic Digestion, and Biological Activity Assessment of SN38-G to SN38. Commercial SN38-G was esterified in methanol or ethanol using sulfuric acid (H₂SO₄) and DMSO, following the procedure detailed in the Methods section under Synthesis of amphiphilic SN38-Gmet and SN38-Geth from SN38-G. The formation of the esters was monitored by analytical HPLC. For analysis, 2 µL of the reaction mixture was diluted in 248 µL of HPLC mobile phase, and 2.5 µL was injected with the fluorescence detector set at an excitation/emission wavelength of 375/430 nm. Hydrolysis of SN38-Gmet and SN38-Geth was carried out at 70 °C in 10 mM HEPES buffer, adjusted to pH 8. Samples were taken at 0, 5, 30, and 60 minutes, diluted in HPLC mobile phase (70% methanol, 25 mM citric acid, pH 3), and incubated at 70 °C for 10 minutes before injection. To generate active SN38, SN38-G was enzymatically cleaved by beta-glucuronidase following pH adjustment to 7 with phosphate buffer. The biological activity of the resulting SN38 was evaluated in an in-vitro cytotoxicity assay using human MCF-7 breast cancer cells, in comparison to commercial SN38. Cells were seeded at 5,000 cells per well in 96-well plates and incubated overnight. Triplicate samples of either commercial SN38 or SN38 generated from SN38-G were added at various dilutions and incubated for 24 hours. Afterward, 10 µL of CCK-8 solution (pre-warmed to 37 °C) was added to each well, and the plates were returned to the incubator for up to 4 hours. Absorbance was then measured at 450 nm using a microplate reader. Cell proliferation inhibition was calculated as: % inhibition = [Abs₄₅₀(sample) / Abs₄₅₀(control)] × 100 .
Cytotoxicity Assay in Cancerous and Non -Cancerous Cell Lines. […]
For the cytotoxicity assay cells were seeded at a density of 5,000 cells per well in 96 -well plates and allowed to adhere overnight. […] Absorbance at 450 nm was measured using a microplate reader. Cell viability was calculated as a percentage of untreated control cells. […]
Data set [2] is described as follows: physchem. Conditions: for logP at 24 h: pH 6, Log P. As for the experimental part:
The log P, defined here by partitioning between 1-octanol and pH 6 buffer (Figure c), was measured to determine compound affinity for organic phases such as the lipid bilayer.
(§1) We added SN38, SN38-G, SN38-G^met, and SN38-G^eth in 10 mM MES pH 6 until it reached saturation and stopped dissolving. Saturated solutions were kept under agitation at room temperature for 24 h and centrifuged at 20,000g for 30 min at 24 °C. Analytical HPLC was then used to quantify the supernatants. The partitioning between 1-octanol and water was determined in 500 μL of 10 mM MES at pH 6 and 500 μL of 1-octanol. […] We allowed equilibration between the 2 phases for 24 h at room temperature under constant shaking. After this, the tubes were centrifuged at 20,000g for 30 min at 24 °C, and samples from each phase were analyzed by analytical HPLC. Using 70% methanol mobile phase conveniently dissolves 1-octanol, ensuring precise estimation of drugs’ quantities.

In data set [3] the test system is beta-glucuronidase. Nature of the data set: Enzymatic digestion of SN38-G to SN38 by beta-glucuronidase. The class given is biochemical. Conditions: 37 °C.
Data set [4] is described as follows: physchem. To be noted: for water solubility: 24 h, pH 6; for solubility at 24 h: pH 6, aqueous buffer, thermodynamic from solid, water solubility. Here is the method: Water solubility tests were conducted in a pH 6 buffer (Figure b) to prevent the hydrolysis of the ester bond.
as §1

A short description of data set [5]: Drug stability: retention in liposomes on dialysis in 0.9% NaCl with 10% FBS at 37 °C. The data set is classed as physicochemical. Conditions: dialysis 0.9% NaCl with 10% FBS, over 15 days. Here is the method:
This stability is consistent with the physicochemical properties of SN38-G and its intraliposomal complexation with calcium, which limits membrane permeability.
We diluted SN38-G liposomes at 1 mg/mL of phospholipids in 2 mL of 0.9% NaCl, complemented with 10% FBS, before transferring to dialysis membrane (Visking Tubing, diameter 15.9 mm, molecular weight 12,000–14,000). We ran the dialysis at 37 °C in the dark against 2 L, to which we added 0.02% sodium azide to prevent bacterial growth, under constant stirring. Samples of 2 μL of liposomes were taken at different intervals and diluted in 248 μL of HPLC mobile phase (70% methanol, […], pH 3), lysed for 10 min at 70 °C, and injected (Volume = 2.5 μL) in the C18 reverse phase HPLC system to analyze the total remaining amount of encapsulated SN38-G.

Data set [6] relates to MDA-MB-231. Nature of the data set: Cell proliferation assay (CCK-8), MDA-MB-231. The data set is classed as cell-based. As for the experimental part: Cells were seeded at a density of five thousand cells per well in 96-well plates and left to incubate overnight. […] Inhibition of cell proliferation was determined as 2 ''%[…]^''=absorbanceat450nm(sample)×100/Absorbanceat450nm(control)

In data set [7] the test system is ovarian cancer model (OVCAR-3). On the set-up: method as in ref 7 (SI). To be noted: equitoxic dose; ref 7 (SI); cited from earlier work.
The subject of data set [8] is MCF-7. Nature of the data set: Cellular regeneration of SN38 from SN38-G liposomes, MCF-7. The data set is classed as cell-based, human. Conditions: 100 μM inhibitor, 2 μM SN38-G liposomes.
The subject of data set [9] is MDA-MB-231. Nature of the data set: Cellular regeneration of SN38 from SN38-G liposomes, MDA-MB-231. Conditions: 100 μM inhibitor, 2 μM SN38-G liposomes. The data set is classed as cell-based.
A short description of data set [10]: Alkaline hydrolysis of SN38-G esters back to SN38-G (10 mM HEPES pH 8, 70 °C, HPLC). The class given is physicochemical. Conditions: alkaline conditions (10 mM HEPES pH 8), after 1 h. As for the experimental part:
Accordingly, we formed a loadable amphiphilic SN38-G by esterification in excess alcohol at elevated temperatures using a sulfuric acid (H2SO4) catalyst. Esterification was performed in either methanol or ethanol, resulting in a methylester (SN38-G^met) and an ethylester (SN38-G^eth). Within 12 h, over 95% of SN38-G was esterified to SN38-G^met and SN38-G^eth (Figure a). Both esters are expected to have different levels of amphiphilicity due to their respective ester length, which might influence their loading behavior. We then tested the reversibility of the esterification to regenerate hydrophilic SN38-G through alkaline hydrolysis, which is a crucial step to ensure proper retention after loading. The hydrolysis rates of SN38-G^met and SN38-G^eth under alkaline conditions at 70 °C, which simulates the elevated pH compartment of liposomes during loading, were adequate. After 1 h, 96.1% (±2.6) of SN38-G^met and 95.5% (±2.1) of SN38-G^eth were hydrolyzed back to SN38-G (Figure b). The hydrolysis duration aligns with the typical incubation time between drugs and liposomes during loading. […]
Hydrolysis of SN38-G^met and SN38-G^eth was performed in 10 mM HEPES adjusted to pH 8 to simulate the alkaline internal compartment of the liposomes during drug loading. We monitored the reaction at 70 °C and took samples at 0, 5, 30, and 60 min of incubation time. […]

Data set [11] relates to lung adenocarcinoma (CL1-5). Further details: method as in ref 1 (SI). To be noted: CL1-5-inoculated mice, free prodrug; ref 1 (SI); cited from earlier work.

In the case of `CCc1c2c(nc3ccc(O[C@@H]4O[C@H](C(=O)O)[C@@H](O)[C@H](O)[C@H]4O)cc13)-c1cc3c(c(=O)n1C2)COC(=O)[C@]3(O)CC` [SN38-G, SN38 glucuronide], the “reduction of toxicity versus SN38” value in [1] (MCF-7) stood at 728.5 fold. For the same compound, the “higher affinities for the aqueous phase” value in [2] (1-octanol vs pH 6 buffer) was “over 775 fold”. The same compound returned a logP at 24 h in [2] of -2.89. In addition, in data set [3], the “cleavage by beta-glucuronidase to SN38” value is “rapidly cleaved”. In data set [4], this compound returned a water solubility of 62800 µg/mL (≈ 110 mM) and a solubility at 24 h of approximately 59500 µg/mL (≈ 105 mM). The retention within liposomes result in data set [5] is given as “excellent retention”. For the same compound, in [6] (MDA-MB-231), the “reduction of toxicity versus SN38” value is 550.5 fold.
Take `CCc1c2c(nc3ccc(O)cc13)-c1cc3c(c(=O)n1C2)COC(=O)[C@]3(O)CC` [SN38, 7-ethyl-10-hydroxycamptothecin]: the IC50 in data set [1] (Homo sapiens, MCF7, MCF-7, 24 h, CCK-8) stood at 5.82 nM; in [6] (Homo sapiens, MDA-MB-231, 24 h, CCK-8) it was 24 nM. Moreover, the “in vitro cytotoxicity of SN38 regenerated from reformed SN38-G” value in [1] (SN38 made by esterification, hydrolysis and beta-glucuronidase digestion of SN38-G, MCF-7, 24 h) is reported as “comparable to that of a commercial SN38 standard”. Moreover, the “higher affinity for the organic phase” value in [2] (1-octanol vs pH 6 buffer) is recorded as 53 fold. Also, in data set [2], the logP at 24 h worked out at 1.73. The compound also returned a solubility at 24 h in data set [4] of approximately 7.45 µg/mL (≈ 0.019 mM).
Take `COc1cccc2c1C(=O)c1c(O)c3c(c(O)c1C2=O)C[C@@](O)(C(=O)CO)C[C@@H]3O[C@H]1C[C@H](N)[C@H](O)[C@H](C)O1` [doxorubicin]: the tumor inhibition in [7] is on record as 56%.
For `O=C(O)[C@@H](O)[C@H]1OC(=O)[C@H](O)[C@H]1O` [D-saccharic acid 1,4-lactone], the “effect on production of SN38 in cells” value in data set [8] and in data set [9] was “effectively suppressed” each time.
`CCOC(=O)[C@H]1O[C@@H](Oc2ccc3nc4c(c(CC)c3c2)Cn2c-4cc3c(c2=O)COC(=O)[C@]3(O)CC)[C@H](O)[C@@H](O)[C@@H]1O` [SN38-G^eth]: the “hydrolyzed back to SN38-G” value in data set [10] stood at 95.5%. Moreover, the logP at 24 h in data set [2] was 0.66. In data set [4], the water solubility stood at 1500 µg/mL (≈ 2.51 mM) and the solubility at 24 h is approximately 1500 µg/mL (≈ 2.51 mM). Besides, the retention within liposomes entry in [5] was “rapid clearance”.
For `CCc1c2c(nc3ccc(O[C@@H]4O[C@H](C(=O)OC)[C@@H](O)[C@H](O)[C@H]4O)cc13)-c1cc3c(c(=O)n1C2)COC(=O)[C@]3(O)CC` [SN38-G^met], in that order: 96.1%, 0.07, 3860 µg/mL (≈ 6.63 mM), approximately 3860 µg/mL (≈ 6.63 mM) and “rapid clearance”.
Regarding `CCc1c2c(nc3ccc(OC(=O)N4CCC(N5CCCCC5)CC4)cc13)-c1cc3c(c(=O)n1C2)COC(=O)[C@]3(O)CC` [CPT-11], in [1] (MCF-7, 24 h, CCK-8), the cytotoxicity entry is given as “low cytotoxicity”.
Regarding “9-aminocamptothecin glucuronide [9AC glucuronide]”, in data set [11], the mice cured entry was “Up to 85%”.

Source of the values: publication PMC12284848, “Safe and Efficient Intracellular Release of SN38 via Lysosomal-Responsive SN38‑G Loaded Liposomes” (ACS Applied Bio Materials, 2025).
